The source of these data is patent US20120264691 (published 2012).

Entries after “also recorded” stand apart in the source; their conditions may differ.

Data set [1] in a line: Britton-Robinson buffer solutions having pH of 2.1, 3.1, 4.0, 5.0, 6.0, 7.0 and 7.9. Particulars: 40±1° C., up to 1 day.
The nature of data set [2]: purified water, pH 4.7, or adjusted to pH 1.8, 3.9 (hydrochloric acid) and 7.8 (sodium hydroxide). Particulars: 25±2° C., up to 3 day.
Data set [3] can be described thus: 0.1M HCl aqueous solution (pH: 1.1). As to conditions: 25±2° C., up to 72 hours.
Data set [4] can be described thus: Britton-Robinson buffer solution (pH 7.0). As to conditions: 40±1° C.
Data set [5] is described as follows: Mcllvain buffer solutions (pH: 2.0, 3.0, 4.0, 5.0, 6.0, 7.0, 8.0). As to conditions: 25±2° C., up to 72 hours.

On to “GSS(n-octanoyl)FLSPEHQRVQQRKESKKPPAKLQPR”, for which the cleaved bond entry in data set [1] is listed as “hydrolytic cleavage of octanoyl group, 1 day”; in data set [2], “hydrolytic cleavage of octanoyl group, 1 day”; in data set [3] it was “hydrolytic cleavage of octanoyl group, 8 hr”; in data set [4] (up to 14 days), “hydrolytic cleavage of octanoyl group of human ghrelin, major, 4 days; also recorded: β-elimination of octanoyl group of human ghrelin, major, 4 days”; in data set [5], “hydrolytic cleavage of octanoyl group, 8 hr”. For the same substance, the fragment found result in data set [2] was “Dha compound, 1 day”; in data set [4] (up to 14 days) it was “degradation product D = desacyl human ghrelin (3-28), 14 days; also recorded: degradation product E = [N^α—CO—C(═CH2)—OH]human ghrelin(4-28), 14 days”.

Consider desacylated human ghrelin, for which the fragment found entry in data set [4] (up to 14 days) was “desacyl human ghrelin (3-28), major, 14 days”.

Turning to [3-Dehydroalanine]human ghrelin, the fragment found result in data set [4] (up to 3 days) was “[N^α—CO—C(═CH2)—OH]human ghrelin(4-28) (2nd degradation product of Dha compound), 3 days”.
